# According to publication PMC5951806, “Rapid labelling and covalent inhibition of intracellular native proteins using ligand-directed N-acyl-N-alkyl sulfonamide” (Nature Communications, 2018):
# Legend:
# Test in all cases: TMT LC-MSMS of 11-labelled proteins
# Assay type in all cases: cell-based
# [1] = molecular target: T1, Isoform 3 of Hexokinase-1 (HK1) (Homo sapiens, UniProt P19367); for Abundance Ratio: (11) / (DMSO): test concentration or dose not given here
# T1 sequence (P19367 1-921 isoform P19367-3): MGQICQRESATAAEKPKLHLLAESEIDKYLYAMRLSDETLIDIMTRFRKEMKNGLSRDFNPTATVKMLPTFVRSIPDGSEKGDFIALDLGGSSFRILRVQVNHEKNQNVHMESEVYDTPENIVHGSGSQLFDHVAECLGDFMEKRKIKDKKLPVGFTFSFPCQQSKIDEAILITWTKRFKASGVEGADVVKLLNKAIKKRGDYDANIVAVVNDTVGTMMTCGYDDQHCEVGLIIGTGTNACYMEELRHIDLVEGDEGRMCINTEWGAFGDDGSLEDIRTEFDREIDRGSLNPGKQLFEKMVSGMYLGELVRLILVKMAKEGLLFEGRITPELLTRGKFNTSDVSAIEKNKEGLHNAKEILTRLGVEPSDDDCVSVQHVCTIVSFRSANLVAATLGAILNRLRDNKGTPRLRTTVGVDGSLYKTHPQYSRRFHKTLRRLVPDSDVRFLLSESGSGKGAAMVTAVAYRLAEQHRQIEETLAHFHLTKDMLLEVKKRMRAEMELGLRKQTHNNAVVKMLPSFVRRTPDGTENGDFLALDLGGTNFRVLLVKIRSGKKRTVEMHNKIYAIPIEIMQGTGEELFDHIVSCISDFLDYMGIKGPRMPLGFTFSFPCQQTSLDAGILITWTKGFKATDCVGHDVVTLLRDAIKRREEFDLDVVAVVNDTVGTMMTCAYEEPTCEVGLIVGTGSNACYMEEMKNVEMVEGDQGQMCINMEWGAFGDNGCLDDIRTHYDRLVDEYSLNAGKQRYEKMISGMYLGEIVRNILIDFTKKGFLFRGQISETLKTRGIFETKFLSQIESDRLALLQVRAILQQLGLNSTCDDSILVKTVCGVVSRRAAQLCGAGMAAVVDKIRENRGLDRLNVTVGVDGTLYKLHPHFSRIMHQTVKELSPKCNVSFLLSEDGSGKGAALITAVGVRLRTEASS
# Text: (§1) Supplement 41467_2018_4343_MOESM4_ESM.xlsx, sheet "Exp3" | column: Abundance Ratio: (11) / (11 with PU-H71); Abundance Ratio: (11) / (DMSO); Abundances (Grouped): 11; Abundances (Grouped): 11 with PU-H71
# [2] = molecular target: T2, Phosphate carrier protein, mitochondrial (SLC25A3) (Homo sapiens, UniProt Q00325); for Abundance Ratio: (11) / (11 with PU-H71): test concentration or dose not given here; for Abundance Ratio: (11) / (DMSO): test concentration or dose not given here
# T2 sequence (Q00325 50-362): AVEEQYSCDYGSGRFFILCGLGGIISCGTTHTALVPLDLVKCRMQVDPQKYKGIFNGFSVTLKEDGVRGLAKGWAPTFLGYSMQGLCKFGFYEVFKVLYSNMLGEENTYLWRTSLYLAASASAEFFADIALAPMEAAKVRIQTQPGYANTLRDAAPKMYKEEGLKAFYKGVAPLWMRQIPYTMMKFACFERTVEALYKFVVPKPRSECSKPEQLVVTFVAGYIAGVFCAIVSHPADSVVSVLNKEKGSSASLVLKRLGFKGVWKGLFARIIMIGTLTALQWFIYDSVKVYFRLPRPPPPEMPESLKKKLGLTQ
# Text: as §1
# protein MAL2 (MAL2) = protein MAL2 (MAL2) (Homo sapiens, UniProt Q969L2); for Abundance Ratio: (11) / (11 with PU-H71): test concentration or dose not given here
# Text: as §1
# Chain of protein MAL2 (MAL2) (Q969L2 whole entry): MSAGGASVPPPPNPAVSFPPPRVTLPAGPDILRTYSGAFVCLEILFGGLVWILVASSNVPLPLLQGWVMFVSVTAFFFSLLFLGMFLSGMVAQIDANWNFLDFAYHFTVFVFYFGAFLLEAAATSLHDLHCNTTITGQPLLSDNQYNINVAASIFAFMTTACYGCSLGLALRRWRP
smiles,measurement,setting,value
CC(=O)Oc1ccc2c(c1)Oc1cc(OC(C)=O)ccc1C21OC(=O)c2cc(C(=O)NCCOCCOCCNC(=O)CCCC(=O)N(CC#N)S(=O)(=O)c3ccc(C(=O)NCCCn4c(Sc5cc6c(cc5I)OCO6)nc5c(N)ncnc54)cc3)ccc21 [compound 11],Abundance Ratio: (11) / (11 with PU-H71),[1]; Exp3,1.072
same,Abundance Ratio: (11) / (DMSO),[1]; Exp3,2.893
same,Abundances (Grouped): 11,[1]; Exp3,29.8
same,Abundances (Grouped): 11 with PU-H71,"[1]; Exp3, with PU-H71",27.8
same,Abundance Ratio: (11) / (11 with PU-H71),[2]; Exp3,0.732
same,Abundance Ratio: (11) / (DMSO),[2]; Exp3,2.193
same,Abundances (Grouped): 11,[2]; Exp3,121.3
same,Abundances (Grouped): 11 with PU-H71,"[2]; Exp3, with PU-H71",165.7
same,Abundance Ratio: (11) / (11 with PU-H71),protein MAL2 (MAL2); Exp3,0.751
same,Abundance Ratio: (11) / (DMSO),protein MAL2 (MAL2); Exp3,5.099
same,Abundances (Grouped): 11,protein MAL2 (MAL2); Exp3,71.9
same,Abundances (Grouped): 11 with PU-H71,"protein MAL2 (MAL2); Exp3, with PU-H71",95.8
